Measured values from patent publication US10004701B2, “Methods and compositions for treating infection” (UNIVERSITY OF ROCHESTER, priority 2012, dated 2018).
Structures can show the parent of a compound that is named as a salt. Where two headings read alike, the source gives them in different places.

Legend:
Experiment in all cases: AK assay 384-well format, Prestwick library screening
P. aeruginosa = type: cell-based, Pseudomonas aeruginosa; details: 50 μM final drug concentration; for fold induction at 50 µM: Pseudomonas aeruginosa, 3 h
[1] = system: A. baumannii strain 98-37-09; type: cell-based, Acinetobacter baumannii; details: 50 μM final drug concentration; for fold induction at 50 µM: Acinetobacter baumannii, 983709, 3 h
E. faecium = type: cell-based, Enterococcus faecium; details: 50 μM final drug concentration; for fold induction at 50 µM: Enterococcus faecium, 3 h
E. coli = type: cell-based, Escherichia coli; details: 50 μM final drug concentration; for fold induction at 50 µM: Escherichia coli, 3 h
[2] = system: S. aureus strain USA300-0114; type: cell-based, Staphylococcus aureus; details: 50 μM final drug concentration; for fold induction at 50 µM: Staphylococcus aureus, USA300, 3 h
E. cloacae = type: cell-based, Enterobacter cloacae; details: 50 μM final drug concentration; for fold induction at 50 µM: Enterobacter cloacae, 3 h
K. pneumoniae = type: cell-based, Klebsiella pneumoniae; details: 50 μM final drug concentration; for fold induction at 50 µM: Klebsiella pneumoniae, 3 h
[3] = cutoff for positive-scoring molecules 3-fold increase
[4] = 384-well format, cutoff for positive-scoring molecules 3-fold increase, read-out: AK-based Prestwick Library Screening Results, P. aeruginosa (increase in extracellular AK activity)
[5] = 384-well format, cutoff for positive-scoring molecules 3-fold increase, read-out: AK-based Prestwick Library Screening Results, A. baumannii (increase in extracellular AK activity)
[6] = 384-well format, cutoff for positive-scoring molecules 3-fold increase, read-out: AK-based Prestwick Library Screening Results, E. faecium (increase in extracellular AK activity)
[7] = 384-well format, cutoff for positive-scoring molecules 3-fold increase, read-out: AK-based Prestwick Library Screening Results, E. coli (increase in extracellular AK activity)
[8] = 384-well format, cutoff for positive-scoring molecules 3-fold increase, read-out: AK-based Prestwick Library Screening Results, S. aureus (increase in extracellular AK activity)
[9] = 384-well format, cutoff for positive-scoring molecules 3-fold increase, read-out: AK-based Prestwick Library Screening Results, E. cloacae (increase in extracellular AK activity)
[10] = 384-well format, cutoff for positive-scoring molecules 3-fold increase, read-out: AK-based Prestwick Library Screening Results, K. pneumoniae (increase in extracellular AK activity)
[11] = planktonic P. aeruginosa, positive cutoff 3-fold increase, read-out: AK-based Prestwick library screening result, P. aeruginosa (fold increase in extracellular AK activity)
[12] = planktonic A. baumannii, positive cutoff 3-fold increase, read-out: AK-based Prestwick library screening result, A. baumannii (fold increase in extracellular AK activity)
[13] = planktonic E. faecium, positive cutoff 3-fold increase, read-out: AK-based Prestwick library screening result, E. faecium (fold increase in extracellular AK activity)
[14] = planktonic E. coli, positive cutoff 3-fold increase, read-out: AK-based Prestwick library screening result, E. coli (fold increase in extracellular AK activity)
[15] = planktonic S. aureus, positive cutoff 3-fold increase, read-out: AK-based Prestwick library screening result, S. aureus (fold increase in extracellular AK activity)
[16] = planktonic E. cloacae, positive cutoff 3-fold increase, read-out: AK-based Prestwick library screening result, E. cloacae (fold increase in extracellular AK activity)
[17] = planktonic K. pneumoniae, positive cutoff 3-fold increase, read-out: AK-based Prestwick library screening result, K. pneumoniae (fold increase in extracellular AK activity)
[18] = cutoff for positive-scoring molecules 3-fold increase, read-out: AK-based Prestwick Library Screening Results, P. aeruginosa (fold increase in extracellular AK activity)
[19] = cutoff for positive-scoring molecules 3-fold increase, read-out: AK-based Prestwick Library Screening Results, A. baumannii (fold increase in extracellular AK activity)
[20] = cutoff for positive-scoring molecules 3-fold increase, read-out: AK-based Prestwick Library Screening Results, E. faecium (fold increase in extracellular AK activity)
[21] = cutoff for positive-scoring molecules 3-fold increase, read-out: AK-based Prestwick Library Screening Results, E. coli (fold increase in extracellular AK activity)
[22] = cutoff for positive-scoring molecules 3-fold increase, read-out: AK-based Prestwick Library Screening Results, S. aureus (fold increase in extracellular AK activity)
[23] = cutoff for positive-scoring molecules 3-fold increase, read-out: AK-based Prestwick Library Screening Results, E. cloacae (fold increase in extracellular AK activity)
[24] = cutoff for positive-scoring molecules 3-fold increase, read-out: AK-based Prestwick Library Screening Results, K. pneumoniae (fold increase in extracellular AK activity)

Compound: CC(C)(C)NC[C@@H](O)COc1cccc2c1CCCC2=O.Cl [(+)-Levobunolol hydrochloride]
- AK-based Prestwick Library Screening Results, P. aeruginosa (fold increase in extracellular AK activity) (P. aeruginosa; [3]): 1.2
- AK-based Prestwick Library Screening Results, A. baumannii (fold increase in extracellular AK activity) [1, 3]: 0.9
- AK-based Prestwick Library Screening Results, E. faecium (fold increase in extracellular AK activity) (E. faecium; [3]): 0.9
- AK-based Prestwick Library Screening Results, E. coli (fold increase in extracellular AK activity) (E. coli; [3]): 1.2
- AK-based Prestwick Library Screening Results, S. aureus (fold increase in extracellular AK activity) [2, 3]: 1.3
- AK-based Prestwick Library Screening Results, E. cloacae (fold increase in extracellular AK activity) (E. cloacae; [3]): 1.5
- AK-based Prestwick Library Screening Results, K. pneumoniae (fold increase in extracellular AK activity) (K. pneumoniae; [3]): 0.9

Compound: COc1ccc2c(c1)c(CC(=O)OCC(=O)O)c(C)n2C(=O)c1ccc(Cl)cc1 [Acemetacin]
- fold induction at 50 µM (P. aeruginosa; planktonic P. aeruginosa, 384-well, cutoff for positive-scoring molecules 3-fold increase, read-out: AK-based Prestwick Library Screening Results: P. aeruginosa (increase in extracellular AK activity)): 1.1
- fold induction at 50 µM ([1]; planktonic A. baumannii, 384-well, cutoff for positive-scoring molecules 3-fold increase, read-out: AK-based Prestwick Library Screening Results: A. baumannii (increase in extracellular AK activity)): 1.1
- fold induction at 50 µM (E. faecium; planktonic E. faecium, 384-well, cutoff for positive-scoring molecules 3-fold increase, read-out: AK-based Prestwick Library Screening Results: E. faecium (increase in extracellular AK activity)): 1
- fold induction at 50 µM (E. coli; planktonic E. coli, 384-well, cutoff for positive-scoring molecules 3-fold increase, read-out: AK-based Prestwick Library Screening Results: E. coli (increase in extracellular AK activity)): 1.2
- fold induction at 50 µM ([2]; planktonic S. aureus, 384-well, cutoff for positive-scoring molecules 3-fold increase, read-out: AK-based Prestwick Library Screening Results: S. aureus (increase in extracellular AK activity)): 1.1
- fold induction at 50 µM (E. cloacae; planktonic E. cloacae, 384-well, cutoff for positive-scoring molecules 3-fold increase, read-out: AK-based Prestwick Library Screening Results: E. cloacae (increase in extracellular AK activity)): 1.3
- fold induction at 50 µM (K. pneumoniae; planktonic K. pneumoniae, 384-well, cutoff for positive-scoring molecules 3-fold increase, read-out: AK-based Prestwick Library Screening Results: K. pneumoniae (increase in extracellular AK activity)): 0.9

Compound: CCC1(C)CC(=O)NC1=O (stereo not shown) [Ethosuximide]
- fold induction at 50 µM (P. aeruginosa; [4]): 0.5
- fold induction at 50 µM [1, 5]: 0.5
- fold induction at 50 µM (E. faecium; [6]): 0.9
- fold induction at 50 µM (E. coli; [7]): 0.6
- fold induction at 50 µM [2, 8]: 0.5
- fold induction at 50 µM (E. cloacae; [9]): 0.6
- fold induction at 50 µM (K. pneumoniae; [10]): 0.6

Compound: CC1CS(=O)(=O)CCN1/N=C/c1ccc([N+](=O)[O-])o1 (stereo not shown) [Nifurtimox]
- fold induction at 50 µM (P. aeruginosa; [11]): 1.1
- fold induction at 50 µM [1, 12]: 1.5
- fold induction at 50 µM (E. faecium; [13]): 1
- fold induction at 50 µM (E. coli; [14]): 1.1
- fold induction at 50 µM [2, 15]: 0.8
- fold induction at 50 µM (E. cloacae; [16]): 1.3
- fold induction at 50 µM (K. pneumoniae; [17]): 1.2

Compound: COC(=O)C1=C(C)NC(C)=C(C(=O)OC(C)C)C1c1cccc2nonc12 (stereo not shown) [Isradipine]
- fold induction at 50 µM (P. aeruginosa; [11]): 1.1
- fold induction at 50 µM [1, 12]: 1.2
- fold induction at 50 µM (E. faecium; [13]): 1.1
- fold induction at 50 µM (E. coli; [14]): 1.1
- fold induction at 50 µM [2, 15]: 0.7
- fold induction at 50 µM (E. cloacae; [16]): 1.4
- fold induction at 50 µM (K. pneumoniae; [17]): 1.1

Compound: CN(C)C(=N)N=C(N)N [Metformin hydrochloride]
- fold induction at 50 µM (P. aeruginosa; [4]): 0.3
- fold induction at 50 µM [1, 5]: 0.4
- fold induction at 50 µM (E. faecium; [6]): 0.8
- fold induction at 50 µM (E. coli; [7]): 0.5
- fold induction at 50 µM [2, 8]: 0.4
- fold induction at 50 µM (E. cloacae; [9]): 0.3
- fold induction at 50 µM (K. pneumoniae; [10]): 0.4

Compound: NS(=O)(=O)c1cc(C(=O)O)c(NCc2ccco2)cc1Cl [Furosemide]
- fold induction at 50 µM (P. aeruginosa; planktonic P. aeruginosa, cutoff for positive-scoring molecules 3-fold increase, read-out: AK-based Prestwick Library Screening Results, P. aeruginosa (increase in extracellular AK activity)): 0.9
- fold induction at 50 µM ([1]; planktonic A. baumannii, cutoff for positive-scoring molecules 3-fold increase, read-out: AK-based Prestwick Library Screening Results, A. baumannii (increase in extracellular AK activity)): 0.8
- fold induction at 50 µM (E. faecium; planktonic E. faecium, cutoff for positive-scoring molecules 3-fold increase, read-out: AK-based Prestwick Library Screening Results, E. faecium (increase in extracellular AK activity)): 0.9
- fold induction at 50 µM (E. coli; planktonic E. coli, cutoff for positive-scoring molecules 3-fold increase, read-out: AK-based Prestwick Library Screening Results, E. coli (increase in extracellular AK activity)): 1
- fold induction at 50 µM ([2]; planktonic S. aureus, cutoff for positive-scoring molecules 3-fold increase, read-out: AK-based Prestwick Library Screening Results, S. aureus (increase in extracellular AK activity)): 0.7
- fold induction at 50 µM (E. cloacae; planktonic E. cloacae, cutoff for positive-scoring molecules 3-fold increase, read-out: AK-based Prestwick Library Screening Results, E. cloacae (increase in extracellular AK activity)): 0.8
- fold induction at 50 µM (K. pneumoniae; planktonic K. pneumoniae, cutoff for positive-scoring molecules 3-fold increase, read-out: AK-based Prestwick Library Screening Results, K. pneumoniae (increase in extracellular AK activity)): 0.7

Compound: C[N+]1(C)CCCC(OC(=O)C(O)(c2ccccc2)c2ccccc2)C1 (stereo not shown) [Mepenzolate bromide]
- fold induction at 50 µM (P. aeruginosa; planktonic, cutoff for positive-scoring molecules 3-fold increase, read-out: AK-based Prestwick Library Screening Results, P. aeruginosa (fold increase in extracellular AK activity)): 0.6
- fold induction at 50 µM ([1]; planktonic, cutoff for positive-scoring molecules 3-fold increase, read-out: AK-based Prestwick Library Screening Results, A. baumannii (fold increase in extracellular AK activity)): 0.7
- fold induction at 50 µM (E. faecium; planktonic, cutoff for positive-scoring molecules 3-fold increase, read-out: AK-based Prestwick Library Screening Results, E. faecium (fold increase in extracellular AK activity)): 1
- fold induction at 50 µM (E. coli; planktonic, cutoff for positive-scoring molecules 3-fold increase, read-out: AK-based Prestwick Library Screening Results, E. coli (fold increase in extracellular AK activity)): 0.6
- fold induction at 50 µM ([2]; planktonic, cutoff for positive-scoring molecules 3-fold increase, read-out: AK-based Prestwick Library Screening Results, S. aureus (fold increase in extracellular AK activity)): 0.6
- fold induction at 50 µM (E. cloacae; planktonic, cutoff for positive-scoring molecules 3-fold increase, read-out: AK-based Prestwick Library Screening Results, E. cloacae (fold increase in extracellular AK activity)): 0.7
- fold induction at 50 µM (K. pneumoniae; planktonic, cutoff for positive-scoring molecules 3-fold increase, read-out: AK-based Prestwick Library Screening Results, K. pneumoniae (fold increase in extracellular AK activity)): 0.6

Compound: C=C1C[C@]23C[C@@]1(O)CC[C@H]2[C@@]12C=C[C@H](O)[C@@](C)(C(=O)O1)[C@H]2[C@@H]3C(=O)O [Gibberellic acid]
- fold induction at 50 µM (P. aeruginosa; [18]): 0.4
- fold induction at 50 µM [1, 19]: 0.4
- fold induction at 50 µM (E. faecium; [20]): 0.8
- fold induction at 50 µM (E. coli; [21]): 0.5
- fold induction at 50 µM [2, 22]: 0.4
- fold induction at 50 µM (E. cloacae; [23]): 0.4
- fold induction at 50 µM (K. pneumoniae; [24]): 0.5

Compound: NC[C@@H]1O[C@H](O[C@H]2[C@@H](O)[C@H](O[C@@H]3[C@@H](O)[C@H](N)C[C@H](N)[C@H]3O[C@H]3O[C@H](CO)[C@@H](O)[C@H](O)[C@H]3N)O[C@@H]2CO)[C@H](N)[C@@H](O)[C@@H]1O [Paromomycin sulfate]
- fold induction at 50 µM (P. aeruginosa; [18]): 1
- fold induction at 50 µM [1, 19]: 1.5
- fold induction at 50 µM (E. faecium; [20]): 0.9
- fold induction at 50 µM (E. coli; [21]): 1.4
- fold induction at 50 µM [2, 22]: 1.3
- fold induction at 50 µM (E. cloacae; [23]): 1.4
- fold induction at 50 µM (K. pneumoniae; [24]): 1
